One assay addresses ALPK1 (Homo sapiens (Human), UniProt Q96QP1). Nature of the assay: ALPK1 in vitro kinase assay (HTRF of TIFA phosphorylation). The class given is biochemical. For orientation: Time-resolved FRET reads energy transfer from a long-lived donor to a nearby acceptor.
For assay [1], the system named is ALPK1-dependent NFκB reporter gene activation in HEK293 cells stably expressing an NF-kB reporter (G9 cells). Description: NFκB gene reporter alkaline phosphatase assay. In kind it is cell-based. The conditions noted are these: read-out: NFkB assay IC50. From the text:
In embodiments, a compound of Formula I, or a subembodiment described herein, is an inhibitor of ALPK1 as measured, for example, in an in vitro kinase assay, or an assay designed to measure the activation of downstream targets of ALPK1 pathway activation, for example NFkB transcriptional activation and the secretion of proinflammatory cytokines and chemokines, such as IL-8, which is also referred to as CXCL-8. In general, the computer program XL fit was used for data analysis, including non-linear regression analysis. The half maximal inhibitory concentration (IC50) was used as the measure of a compound's effectiveness in the assays. IC50 values were determined using the following logistic equation Y=min+(max−min)/(1+(X/IC50^−hillslpoe), where Y is the value at the compound concentration, X. The concentration response curve fitting was conducted using GraphPad Prism version 6.00 software.
An alkaline phosphatase reporter assay system was used to measure inhibition of ALPK1-dependent NFκB reporter gene activation. Briefly, HEK293 cells stably expressing an NF-kB reporter (referred to herein as “G9 cells”) were maintained in DMEM as described above. For the assay, cells were seeded into 96-well plates at a density of 10,000 cells/well in Freestyle™ 293 Expression Medium (ThermoFisher), and allowed to attach overnight. Cells were pretreated with serially diluted compounds for 30 min and then stimulated with D-glycero-D-manno-6-fluoro-heptose-1β-S-ADP. […] NFkB gene activation was detected using the chromogenic substrate, para-nitrophenyl phosphate (pNPP) according to the manufacturer's protocols (pNPP Phosphatase Assay, Beyotime Biotechnology).

Structures can show the parent of a compound that is named as a salt. Where two headings read alike, the source gives them in different places.

Chain of ALPK1 (Q96QP1 whole entry): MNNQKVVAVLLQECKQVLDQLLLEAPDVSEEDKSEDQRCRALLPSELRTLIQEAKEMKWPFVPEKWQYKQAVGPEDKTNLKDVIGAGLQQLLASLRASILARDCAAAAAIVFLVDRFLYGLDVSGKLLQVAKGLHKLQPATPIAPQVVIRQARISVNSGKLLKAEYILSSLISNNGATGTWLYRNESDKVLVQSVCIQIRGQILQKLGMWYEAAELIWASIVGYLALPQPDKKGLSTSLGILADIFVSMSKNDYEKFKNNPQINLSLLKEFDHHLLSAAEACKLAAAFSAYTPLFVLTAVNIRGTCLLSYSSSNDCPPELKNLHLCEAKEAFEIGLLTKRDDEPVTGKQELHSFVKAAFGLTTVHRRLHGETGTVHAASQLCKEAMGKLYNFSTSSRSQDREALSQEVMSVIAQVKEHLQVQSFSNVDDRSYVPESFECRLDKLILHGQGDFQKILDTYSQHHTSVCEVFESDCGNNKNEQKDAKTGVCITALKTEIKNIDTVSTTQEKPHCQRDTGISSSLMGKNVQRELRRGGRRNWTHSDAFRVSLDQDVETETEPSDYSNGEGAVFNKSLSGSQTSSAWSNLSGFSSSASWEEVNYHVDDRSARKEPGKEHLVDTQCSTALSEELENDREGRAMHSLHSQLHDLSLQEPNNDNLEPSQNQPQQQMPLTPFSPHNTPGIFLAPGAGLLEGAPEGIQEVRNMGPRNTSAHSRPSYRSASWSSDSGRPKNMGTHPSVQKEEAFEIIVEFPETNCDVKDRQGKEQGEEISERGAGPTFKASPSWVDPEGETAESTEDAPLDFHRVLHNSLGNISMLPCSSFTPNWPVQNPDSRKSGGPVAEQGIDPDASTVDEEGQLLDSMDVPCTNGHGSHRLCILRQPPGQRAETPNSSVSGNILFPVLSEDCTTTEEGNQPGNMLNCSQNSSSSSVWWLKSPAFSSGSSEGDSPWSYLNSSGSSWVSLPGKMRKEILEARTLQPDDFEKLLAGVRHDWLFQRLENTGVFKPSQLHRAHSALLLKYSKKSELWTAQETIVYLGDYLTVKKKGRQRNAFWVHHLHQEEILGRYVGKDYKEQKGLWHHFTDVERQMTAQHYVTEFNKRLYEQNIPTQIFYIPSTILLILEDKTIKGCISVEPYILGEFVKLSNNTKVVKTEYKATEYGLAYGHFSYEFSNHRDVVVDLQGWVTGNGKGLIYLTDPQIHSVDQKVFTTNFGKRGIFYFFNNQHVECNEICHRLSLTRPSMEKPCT

Take `COc1ccc(C(C)(C)c2csc(NC(=O)NCc3ccc(NCCO)nc3)n2)cc1` [Example A022, 1-((6-((2-hydroxyethyl)amino)pyri-din-3-yl)methyl)-3-(4-(2-(4-methoxyphenyl)propan-2-yl)thiazol-2-yl)urea]: the results for the IC50 (at ALPK1; in assay [1]) were 0.232 µM and 0.96 µM, respectively.

Regarding `CC(c1ccc(Br)cc1)c1csc(NC(=O)NCc2ccc(N3CCNCC3)cc2)n1` (stereo not shown) [Example A044, 1-(4-(1-(4-bromophenyl)ethyl)thiazol-2-yl)-3-(4-(piperazin-1-yl)benzyl)urea], the IC50 at ALPK1 stood at 0.147 µM; in assay [1] (Homo sapiens, HEK293), 1.11 µM.

Consider `CC(C)(c1ccc(Br)cc1)c1csc(NC(=O)NCc2ccc(N3CCNCC3)cc2)n1` [Example A027, 1-(4-(2-(4-bromophenyl)propan--2 yl)thiazol-2-yl)-3-(4-(piperazin-1-yl)benzyl)urea], for which the IC50 against ALPK1 is 0.046 µM; against ALPK1 (ALPK1 2 nM, TIFA substrate, ADP-Heptose activator, HTRF readout), around 0.05 µM; in assay [1] (Homo sapiens, HEK293), 1.45 µM.

For the molecule `C#CC(C)(c1ccc(Cl)cc1)c1csc(NC(=O)N2CC(CN3CCC(N)CC3)C2)n1` (stereo not shown) [Example A263, 3-((4-aminopiperidin-1-yl)methyl)-N-(4-(2-(4-chlorophenyl)but-3-yn-2-yl)thiazol-2-yl)azetidine-1-carboxamide], the IC50 was 0.039 µM against ALPK1 and 1.44 µM in assay [1] (Homo sapiens, HEK293).

Take `CC(C)(c1ccc(F)cc1)c1csc(NC(=O)NCc2ccc(N3CCNCC3)cc2)n1` [Example A047, 1-(4-(2-(4-fluorophenyl)propan-2-yl)thiazol-2-yl)-3-(4-(piperazin-1-yl)benzyl)urea]: the IC50 came out at 0.167 µM on ALPK1 and 2.1 µM in assay [1] (Homo sapiens, HEK293).

As for `CC(C)(c1ccc(Cl)cc1)c1csc(NC(=O)NCc2ccc(N3CCNCC3)cc2)n1` [Example A046, 1-(4-(2-(4-chlorophenyl)propan-2-yl)thiazol-2-yl)-3-(4-(piperazin-1-yl)benzyl)urea], the IC50 at ALPK1 is 0.079 µM; in assay [1] (Homo sapiens, HEK293), 1.06 µM.

As for `C#C[C@](C)(c1ccc(Br)cc1)c1csc(NC(=O)NCC(C)(C)O)n1` (stereo in doubt) [Example A305, 1-[4-[1-(4-bromophenyl)-1-methyl-prop-2-ynyl]thiazol-2-yl]-3-(2-hydroxy-2-methyl-propyl)urea], the IC50 on ALPK1 was 0.167 µM; in assay [1] (Homo sapiens, HEK293), 2.69 µM.

Consider `C#CC(C)(c1ccc(Cl)cc1)c1csc(NC(=O)N2CCNCC2)n1` (stereo not shown) [Example A308, N-(4-(2-(4-chlorophenyl)but-3-yn-2-yl)thiazol-2-yl)piperazine-1-carboxamide], for which the IC50 on ALPK1 came to 1.54 µM; in assay [1] (Homo sapiens, HEK293), 5.33 µM.

Take `COc1ccc(C(C)(C)c2csc(NC(=O)NCc3cnc(N4CCN(CCO)CC4)c(F)c3)n2)cc1` [Example A216, 1-((5-fluoro-6-(4-(2-hydroxyethyl)piperazin-1-yl)pyridin-3-yl)methyl)-3-(4-(2-(4-methoxyphenyl)propan-2-yl)thiazol-2-yl)urea]: the IC50 at ALPK1 worked out at 0.061 µM; in assay [1] (Homo sapiens, HEK293), 1.43 µM.

In the case of `C#C[C@@](C)(c1ccc(Cl)cc1)c1nc(NC(=O)NCCO)sc1Cl` [Example A247, (S)-1-(5-chloro-4-(2-(4-chlorophenyl)but-3-yn-2-yl)thiazol-2-yl)-3-(2-hydroxyethyl)urea], the IC50 in assay [1] (Homo sapiens, HEK293) was determined as 1.85 µM.

Turning to `CC(C)(c1ccc(Br)cc1)c1csc(NC(=O)NCc2cccc(N3CCNCC3)c2)n1` [Example A005, 1-(4-(2-(4-bromophenyl)propan-2-yl)thiazol-2-yl)-3-(3-(piperazin-1-yl)benzyl)urea], the IC50 in assay [1] (Homo sapiens, HEK293) was 1.15 µM.

Regarding `COc1ccc(C(C)(C)c2csc(NC(=O)NCCCCNc3ccccc3)n2)cc1` [Example A147, 1-(4-(2-(4-methoxyphenyl)propan-2-yl)thiazol-2-yl)-3-(4-(phenylamino)butyl)urea], in assay [1] (Homo sapiens, HEK293), the IC50 is 1.91 µM.

As for `C#C[C@@](C)(c1ccc(Cl)cc1)c1csc(NC(=O)N2CCc3cc(N4CCNCC4)ccc3C2)n1` [Example A281, N-(4-(2-(4-chlorophenyl)but-3-yn-2-yl)thiazol-2-yl)-6-(piperazin-1-l)-3,4-dihydroisoquinoline-2(1H)-carboxamide], the IC50 in assay [1] worked out at 0.86 µM.

On to `C#CC(C)(c1ccc(Br)cc1)c1csc(NC(=O)NCCN2CCNCC2)n1` (stereo not shown) [Example A239, 1-(4-(2-(4-bromophenyl)but-3-yn-2-yl)thiazol-2-yl)-3-(2-(piperazin-1-yl)ethyl)urea], for which the IC50 in assay [1] (Homo sapiens, HEK293) was 0.85 µM.

Regarding `C#C[C@](C)(c1ccc(Cl)cc1)c1csc(NC(=O)NCC(C)O)n1` (stereo in doubt) [Example A318, 1-(4-(2-(4-chlorophenyl)but-3-yn-2-yl)thiazol-2-yl)-3-(2-hydroxypropyl)urea], in assay [1], the IC50 is 2.24 µM.

As to `C#C[C@](C)(c1ccc(Cl)cc1)c1nc(NC(=O)NCCO)sc1Cl` [Example A248, (R)-1-(5-chloro-4-(2-(4-chlorophenyl)but-3-yn-2-yl)thiazol-2-yl)-3-(2-hydroxyethyl)urea], the IC50 in assay [1] (Homo sapiens, HEK293) amounted to 2.73 µM.

Take `C#C[C@@](C)(c1ccc(Cl)cc1)c1csc(NC(=O)N2CCc3cc(N4CCNCC4)ccc3C2)n1` [Example A260, (S)-N-(4-(2-(4-chlorophenyl)but-3-yn-2-yl)thiazol-2-yl)-6-(piperazin-1-yl)-3,4-dihydroisoquinoline-2(1H)-carboxamide]: the IC50 in assay [1] (Homo sapiens, HEK293) was found to be 1.08 µM.

Regarding `C#CC(C)(c1ccc(OC)cc1)c1csc(NC(=O)NC(C)c2ccc(N3CCNCC3)cc2)n1` (stereo not shown) [Example A234, 1-(4-(2-(4-methoxyphenyl)but-3-yn-2-yl)thiazol-2-yl)-3-(1-(4-(piperazin-1-yl)phenyl)ethyl)urea], in assay [1] (Homo sapiens, HEK293), the concentration for half-maximal inhibition (IC50) came out at 2.67 µM.

As to `CC(C)(c1ccc(Br)cc1)c1csc(NC(=O)NCc2ccc(N3CCNCC3)c(Br)c2)n1` [Example A097, 1-(3-bromo-4-(piperazin-1-yl)benzyl)-3-(4-(2-(4-bromophenyl)propan-2-yl)thiazol-2-yl)urea], the 50% inhibitory concentration (IC50) in assay [1] (Homo sapiens, HEK293) was 1.42 µM.

For the molecule `CC(C)(c1ccc(I)cc1)c1csc(NC(=O)NCc2cnc(N3CCNCC3)nc2)n1` [Example A178, 1-(4-(2-(4-iodophenyl)propan-2-yl)thiazol-2-yl)-3-((2-(piperazin-1-yl)pyrimidin-5-yl)methyl)urea], the IC50 in assay [1] (Homo sapiens, HEK293) amounted to 0.92 µM.

As for `C#C[C@](C)(c1ccc(Cl)cc1)c1csc(NC(=O)N2CCc3cc(N4CCNCC4)ccc3C2)n1` (stereo in doubt) [Example A280, N-(4-(2-(4-chlorophenyl)but-3-yn-2-yl)thiazol-2-yl)-6-(piperazin-1-yl)-3,4-dihydroisoquinoline-2(1H)-carboxamide], the 50% inhibitory concentration (IC50) in assay [1] (Homo sapiens, HEK293) amounted to 2.18 µM.

Consider `CC(C)(c1ccc(Br)cc1)c1csc(NC(=O)NCc2ccc(C3CCNCC3)c(F)c2)n1` [Example A222, 1-(4-(2-(4-bromophenyl)propan-2-yl)thiazol-2-yl)-3-(3-fluoro-4-(piperidin-4-yl)benzyl)urea], for which the IC50 in assay [1] (Homo sapiens, HEK293) is 0.93 µM.

`COc1ccc(C(C)(CO)c2csc(NC(=O)NC(C)c3ccc(N4CCNCC4)cc3)n2)cc1` (stereo not shown) [Example A235, 1-(4-(1-hydroxy-2-(4-methoxyphenyl)propan-2-yl)thiazol-2-yl)-3-(1-(4-(piperazin-1-yl)phenyl)ethyl)urea]: the IC50 in assay [1] (Homo sapiens, HEK293) is 27 µM.

Regarding `COc1ccc(C(C)(C)c2csc(NC(=O)NCc3cc(F)c(C4CCNCC4)c(F)c3)n2)cc1` [Example A151, 1-(3,5-difluoro-4-(piperidin-4-yl)benzyl)-3-(4-(2-(4-methoxyphenyl)propan-2-yl)thiazol-2-yl)urea hydrochloride], the IC50 in assay [1] (Homo sapiens, HEK293) is 0.95 µM.

For orientation: IC50 means the concentration needed to halve the response being measured.

For the origin of these results see US20240109853A1 (Shanghai Yao Yuan Biotechnology Co., Ltd., priority 2020, published 2024).
